Where a name gives a salt, the structure may show the parent alone.
What was measured:
Details in all cases: 72 h
Caco-2 [1] = experiment: cell viability relative to DMSO; higher = less toxic
Calu-3 [2] = experiment: as above
HepG2 [3] = experiment: as above
U2OS [4] = experiment: as above
Vero E6 [5] = experiment: as above
Caco-2 [6] = experiment: relative viability EC50 (midpoint between 100% and the lowest measured viability); higher = less toxic
Calu-3 [7] = experiment: as above
HepG2 [8] = experiment: as above
U2OS [9] = experiment: as above
Vero E6 [10] = experiment: as above
Caco-2 [11] = experiment: drug sensitivity score (DSS) for viability; higher = more toxic; extreme values may be limits of the assay
Calu-3 [12] = experiment: as above
HepG2 [13] = experiment: as above
U2OS [14] = experiment: as above
Vero E6 [15] = experiment: as above

Structure (SMILES) | cell viability (Caco-2 [1]; 1 nM) | cell viability (Caco-2 [1]; 10 nM) | cell viability (Caco-2 [1]; 100 nM) | cell viability (Caco-2 [1]; 1000 nM) | cell viability (Caco-2 [1]; 10000 nM) | cell viability (Calu-3 [2]; 1 nM) | cell viability (Calu-3 [2]; 10 nM) | cell viability (Calu-3 [2]; 100 nM) | cell viability (Calu-3 [2]; 1000 nM) | cell viability (Calu-3 [2]; 10000 nM) | cell viability (HepG2 [3]; 1 nM) | cell viability (HepG2 [3]; 10 nM) | cell viability (HepG2 [3]; 100 nM) | cell viability (HepG2 [3]; 1000 nM) | cell viability (HepG2 [3]; 10000 nM) | cell viability (U2OS [4]; 1 nM) | cell viability (U2OS [4]; 10 nM) | cell viability (U2OS [4]; 100 nM) | cell viability (U2OS [4]; 1000 nM) | cell viability (U2OS [4]; 10000 nM) | cell viability (Vero E6 [5]; 1 nM) | cell viability (Vero E6 [5]; 10 nM) | cell viability (Vero E6 [5]; 100 nM) | cell viability (Vero E6 [5]; 1000 nM) | cell viability (Vero E6 [5]; 10000 nM) | relative viability EC50 (Caco-2 [6]) | relative viability EC50 (Calu-3 [7]) | relative viability EC50 (HepG2 [8]) | relative viability EC50 (U2OS [9]) | relative viability EC50 (Vero E6 [10]) | drug sensitivity score (Caco-2 [11]) | drug sensitivity score (Calu-3 [12]) | drug sensitivity score (HepG2 [13]) | drug sensitivity score (U2OS [14]) | drug sensitivity score (Vero E6 [15])
O[C@@H]1[C@H](O)[C@@H](CCl)O[C@H]1n1cnc2c(NC3CC4CCC3C4)ncnc21 (mixture of isomers) [5'-chloro-5'-deoxy-ENBA-(+/-)] | 98.8% | 99.6% | 99.2% | 97.2% | 86.1% | 99.1% | 98% | 93.3% | 94.8% | 90.2% | 96% | 99.6% | 96.2% | 99.5% | 85.4% | 104% | 100% | 99.3% | 104% | 97.6% | 96.7% | 97.2% | 94.3% | 91.9% | 91.5% | > 10 µM | > 10 µM | > 10 µM | > 10 µM | > 10 µM | 0.4 | 0 | 0.2 | 0 | 0
O=C(Nc1ccccc1)c1ccccc1O [salicylanilide] | 80% | 101% | 112% | 102% | 90.6% | 107% | 100% | 102% | 90.9% | 111% | 102% | 96.6% | 94.4% | 94.6% | 75.6% | 95.9% | 96.9% | 97.1% | 93.8% | 97.5% | 95.9% | 98.4% | 98.4% | 100% | 99.9% | > 10 µM | > 10 µM | > 10 µM | > 10 µM | > 10 µM | 0 | 0 | 1.6 | 0 | 0
C=CCN1C[C@H](C)N([C@H](c2ccc(C(=O)N(CC)CC)cc2)c2cccc(OC)c2)C[C@H]1C [SNC-80] | 92.1% | 99.2% | 101% | 95.5% | 93.7% | 93.4% | 98.8% | 101% | 91.2% | 104% | 99.9% | 84.6% | 100% | 106% | 97.4% | 98.4% | 103% | 93.4% | 99.4% | 94.7% | 106% | 97.7% | 105% | 102% | 101% | > 10 µM | > 10 µM | > 10 µM | > 10 µM | > 10 µM | 0 | 0 | 0 | 0 | 0
CC(C)(C)c1cc(C(=O)/C(C#N)=N/Nc2cccc(Cl)c2)no1 [ESI-09] | 99.8% | 96.1% | 104% | 96.6% | 37% | 103% | 93.7% | 91.9% | 102% | 95.9% | 109% | 102% | 102% | 103% | 31.2% | 98.1% | 96.1% | 98.4% | 96.1% | 87.6% | 90% | 94.2% | 91% | 99.3% | 83.3% | 2.75 µM | > 10 µM | 3.4 µM | > 10 µM | > 10 µM | 3.9 | 0 | 3.5 | 0.2 | 0
COC(=O)C(c1ccccc1)C1CCCCN1 (stereo not given) [METHYLPHENIDATE HYDROCHLORIDE] | 97% | 99.5% | 91.2% | 103% | 104% | 100% | 102% | 91.1% | 105% | 101% | 108% | 95.2% | 91.4% | 102% | 99% | 96.5% | 102% | 92.1% | 95.3% | 98.6% | 99.7% | 97.3% | 98.5% | 98.9% | 102% | > 10 µM | > 10 µM | > 10 µM | > 10 µM | > 10 µM | 0 | 0 | 0 | 0 | 0
Cn1c(CNc2ccc(C(=N)N)cc2)nc2cc(C(=O)N(CCC(=O)O)c3ccccn3)ccc21 [dabigatran] | 109% | 97.1% | 101% | 94% | 95.5% | 114% | 99.6% | 90.1% | 93.7% | 92.8% | 103% | 95.8% | 104% | 97.8% | 91.7% | 104% | 99.3% | 101% | 97.1% | 98.1% | 96.9% | 96.4% | 99.1% | 101% | 99% | > 10 µM | > 10 µM | > 10 µM | > 10 µM | > 10 µM | 0 | 0 | 0 | 0 | 0
O=C(c1ccc2nccnc2c1)N1CCCCC1 [ampalex] | 97.6% | 100% | 94.5% | 103% | 101% | 97.4% | 107% | 95.5% | 96.6% | 100% | 103% | 99.6% | 108% | 102% | 102% | 98.3% | 102% | 94.8% | 99.7% | 102% | 96.3% | 96.8% | 98.8% | 93.1% | 94% | > 10 µM | > 10 µM | > 10 µM | > 10 µM | > 10 µM | 0 | 0 | 0 | 0 | 0

— the supplement of paper PMC13380429
